From patent US10286039B2, “Compositions and methods for treating neutropenia” (Children's Hospital Los Angeles, priority 2014, dated 2019)

B1: GCSF: granulocyte colony-stimulating factor (protein, UniProt P09919 31-207, looked up)
Granulocyte …: TPLGPASSLPQSFLLKCLEQVRKIQGDGAALQEKLVSECATYKLCHPEELVLLGHSLGIPWAPLSSCPSQALQLAGCLSQLHSGLFLYQGLLQALEGISPELGPTLDTLQLDVADFATTIWQQMEELGMAPALQPTQGAMPAFASAFQRRAGGVLVASHLQSFLEVSYRVLRHLAQP

What was measured:
neutropenic mice = experiment: Neutrophil recovery in CPA-induced neutropenic mice at neutrophil-decrease stage; format: in vivo, C57BL6/J mice
Description: To evaluate Am80 effect in vivo, we first tested half maximal effective concentration (EC50) of different human equivalent high, medium, and low doses of Am80 and GCSF (FIG. 5a) on regenerating mature neutrophils in neutropenic mice. Normal C57BL6/J mice were injected with a single dose of cyclophosphamide (CPA) to reduce mouse neutrophils. At 4 hr post-injection of CPA, mice were treated with vehicle, Am80, GCSF, or Am80-GCSF for consecutive 3 days before mice were sacrificed (FIG. 5b). […] Data represent 2 independent experiments with similar results.

S. Aureus [1] = experiment: Neutrophil bactericidal activity and production, neutropenic mice at neutrophil-recovery stage, lower dose; format: in vivo, Mice (C57BL6/J)
Description: Mice (C57BL6/J) were randomly divided into five groups (3 control and 4 for each experimental group, n=19 mice). As illustrated (FIG. 8a), mice were given regimens 2 days post-CPA injection (200 mg/kg). After consecutive 3 days of treatment, mice were challenged with S. Aureus for up to 16 hrs before euthanasia. We found a significant increase of peripheral blood (PB) neutrophils in all groups after bacterial infection (FIG. 8b). PB collected at 3 and 16 hrs-post infection was used for analyzing of neutrophil bactericidal activities. […] However, with low doses of Am80-GCSF treatment, Am80 can effectively differentiate GCSF-regenerated granulocytic precursors into mature neutrophils against microbial infection. P<0.05; **: P<0.01; ***: P<0.005.

S. aureus [2] = experiment: Neutrophil bactericidal activity, neutropenic mice at neutrophil-decrease stage, medium dose; format: in vivo, C57BL/6J mice; conditions: for neutrophil induction by bacterial infection: neutrophil-decrease stage, Vetscan analysis of PB
Description: FIG. 6A experimental design. C57BL/6J mice (n=19) were randomly divided into five groups (3 for control and 4 for each of experimental groups). Mouse neutropenia was induced by IP injection of CPA on day 0. After 4 hrs of CPA injection, different regimens were given to mice once a day, with Am80 by oral or GCSF by SC or vehicle by oral. Mice were challenged by 6.3×10^6 CFU of S. aureus on day 2 via tail vein injection. After 3 hrs infection, each 100 μl blood was collected from tails for analysis of initial bactericidal activity of neutrophils. The mice were sacrificed 16 hrs post-infection, by which PB and heart were harvested. (FIG. 6B) Vetscan analysis of WBC and neutrophils in PB. Except blank mice, neutrophil induction was not observed in all other groups (FIG. 6C-E). Bactericidal activities of neutrophils were determined 3 hr (FIG. 6C) and 16 hrs post-infection (FIG. 6D) in PB as well as in heart (panel E), by using blood agar analysis of viable extracellular bacteria. […] A+G: Am80-GCSF.

CD34+ cells = experiment: Western blot and gene transcription in CD34+ cells; format: cell-based
Text: A novel gene transcription pattern is induced by Am80, in contrast to All-trans retinoic acid (ATRA or RA).

S. aureus [3] = experiment: Neutrophil bactericidal activity, neutropenic mice at neutrophil-decrease stage, lower dose; format: in vivo, C57BL/6J mice; conditions: for neutrophil induction by bacterial infection: neutrophil-decrease stage, Vetscan analysis of PB
Description: Mice (C57BL6/J) were randomly divided into five groups (3 control and 4 for each experimental group, n=19 mice). C57BL/6J mice (n=19) were randomly divided into five groups (3 for control and 4 for each of experimental groups). The procedures for induction of mouse neutropenia and treatment are the same to the medium dose test (see slide 6). Mice were challenged with 6.3×10^6 CFU of S. aureus on day 2 via tail vein injection. After 3 hrs infection, each 100 μl blood was collected from tails for determining initial bactericidal activities of neutrophils. The mice were sacrificed on day 3, by which PB and spleen were harvested. (FIG. 7A). Vetscan analysis of WBC and neutrophils in PB was performed (FIG. 7B). Except blank mice, neutrophil induction was not observed in all other groups (FIG. 7C-E). Bactericidal activities of neutrophils were determined 3 hr (panel C) and 16 hrs post-infection (panel D) in PB as well as in spleen (panel E), using blood agar analysis of viable extracellular bacteria.

NB4 cells = experiment: Proliferation, granulocytic differentiation and ROS production in NB4 cells; format: cell-based; conditions: day 6, in the presence of either fMLP or PMA
S. Aureus [4] = experiment: Survival of neutropenic mice enduring continual bacteremia; format: in vivo; conditions: treatment 24 hrs post-CPA
Description: If Am80 can indeed differentiate GCSF-regenerated great amount of granulocytic precursors into mature neutrophils against infection, Am80-GCSF combination should effectively reduce infection-related mortality in cancer chemotherapy induced neutropenia. We tested this hypothesis by using neutropenic mice experiencing bacteremia through entire neutropenia period. As illustrated (FIG. 9A), mice were given different regimens 4 hrs post-CPA injection for up to day 8. S. Aureus infection was performed on day 3, and survival rate was calculated on day 9. […] To evaluate bactericidal ability of regenerated neutrophils in survived mice, the survived blank and Am80-GCSF mice on day 11 were further infected with S. Aureus for 15 min before euthanasia. A parallel analysis of freshly isolated PB with both Giemsa and Gram stains determined neutrophil phagocytosis in infected mice vs. free of bacteremia in non-infected mice (FIG. 9E). Since GCSF is usually provided to CCIN ≥24 hrs post-chemo drug, we further tested low and medium doses of Am80-GCSF treatment 24 hrs post-CPA, as illustrated (FIG. 9F, 9J), with two independent experiments for each of doses.

AML BM primary blasts = experiment: Proliferation of primary blasts from acute myeloid leukemia patients; format: cell-based, human
Description: Proliferation of PB primary blasts from acute myeloid leukemia patients was assayed (FIG. 13A) and quantified P<0.05 (FIG. 13B). Granulocytic morphology of AML PB primary blasts was analyzed (FIG. 13C) and quantified; Am80 vs. G-CSF, P<4.0E-8; Am80 vs. control, P<6.02E-7 (FIG. 13D).
Proliferation of BM primary blasts from acute myeloid leukemia patients was assayed (FIG. 13E) and quantified at day 8, Am80 vs. G-CSF, P<0.008; G-CSF vs. control, P<0.032 (FIG. 13F). Granulocytic morphology of AML BM primary blasts was analyzed (FIG. 13G) and quantified; Am80 vs. G-CSF, P<9.9E-4; Am80 vs. RA, P<1.0E-4 (FIG. 13H).

Row | Molecule | sustaining neutrophil levels (PB) (neutropenic mice; low and medium doses, 3 days treatment from 4 hr post-CPA, compared to all other treatments) | granulocytic morphology differentiation (PB) (neutropenic mice; low doses vs medium doses) | neutrophil production in BM and PB (S. Aureus [1]) | neutrophil bactericidal activity (S. aureus [2]; 3 hr and 16 hrs post-infection in PB and heart, viable extracellular bacteria) | neutrophil induction by bacterial infection (S. aureus [2]) | C/EBPε, CD18, and granule LL-37 mRNA levels (CD34+ cells) | p21Cip/Kip mRNA levels (CD34+ cells) | MAT1 fragmentation (CD34+ cells; Western blot) | retinoic acid receptor (RARα) hypophosphorylation (CD34+ cells; Western blot) | neutrophil bactericidal activity (S. aureus [3]; 3 hr and 16 hrs post-infection in PB and spleen, viable extracellular bacteria) | neutrophil induction by bacterial infection (S. aureus [3]) | ROS production (NB4 cells) | differentiation of 3rd layer BM cells, granulocytic morphologic analysis (neutropenic mice; medium dose GCSF vs low doses of Am80-GCSF) | recovery of 3rd layer BM cells (neutropenic mice; medium dose, Percoll separation of bone marrow cells) | neutrophil bactericidal activity (killing assays) (S. Aureus [1]; PB at 3 and 16 hrs post-infection) | survival rate (S. Aureus [4]; low-dose test, S. Aureus infection) | survival rate (S. Aureus [4]; medium-dose test, no statistical difference between groups) | growth rate of AML BM primary blasts (AML BM primary blasts; G-CSF vs. control, P<0.018) | growth of non-APL AML patient blasts (AML BM primary blasts; compared to those treated with Am80 or ATRA)
1 | CC1(C)CCC(C)(C)c2cc(NC(=O)c3ccc(C(=O)O)cc3)ccc21 [Am80, tamibarotene] | better EC50 effect on sustaining neutrophil levels | enhanced granulocytic morphology differentiation better than did medium doses | induced least number of neutrophils in both BM and PB | significantly increased neutrophil bactericidal activity | not instigated | significant up-regulation | decrease | progressive induction | progressive induction | greater bactericidal activity than those induced by G-CSF or Am80+GCSF | not instigated | – | – | – | – | – | – | – | –
2 | B1 | – | – | induced significantly more neutrophils in BM while similar amount in PB compared to Am80-GCSF | – | not instigated | – | – | – | – | – | not instigated | fails to induce ROS production | less differentiated than those induced by low doses of Am80-GCSF | induced highest recovery | significantly low bactericidal activity compared to those induced by Am80-GCSF | 12.5% | 11.1% | Higher growth rate | promotes the growth
